Test results published in US20110152345A1, “EBI3, DLX5, NPTX1 AND CDKN3 FOR TARGET GENES OF LUNG CANCER THERAPY AND DIAGNOSIS” (Oncotherapy Science, Inc., priority 2007, published 2011).

Assays:
[1] = test system: LC319 cells; assay: MTT assay of LC319 cells treated with cell-permeable 11R-EF-1delta peptides; format: cell-based, human; settings: peptide 2.5, 5.0 and 7.5 micro M for 5 days
Text: 19-amino acid peptide sequence corresponding to a part of EF-1delta protein that contained possible binding sites of CDKN3 were covalently linked at its NH2-terminus to a membrane transducing 11 poly-arginine sequence (11R; refs. Futaki et al., Hayama et al., 2006, 2007). Five cell permeable peptides were synthesized: 11R-EF-1delta73-91, RRRRRRRRRRR-GGG-TSGDHGELVVRIASLEVEN; 11R-EF-1delta90-108, RRRRRRRRRRR-GGG-ENQSLRGVVQELQQAISKL; 11R-EF-1delta108-126, RRRRRRRRRRR-GGG-LEARLNVLEKSSPGHRATA; 11R-EF-1delta125-143, RRRRRRRRRRR-GGG-TAPQTQHVSPMRQVEPPAK; 11R-EF-1delta142-160, RRRRRRRRRRR-GGG-AKKPATPAEDDEDDDIDLF. Peptides were purified by preparative reverse-phase high-pressure liquid chromatography. LC319 cells were incubated with the 11R peptides at the concentration of 2.5, 5.0 and 7.5 micro M for 5 days. The medium was changed at every 48 hours at the appropriate concentrations of each peptide and the viability of cells was evaluated by MTT assay at 5 days after the treatment. 12. Immunoprecipitation and MALDI-TOF-MS mapping of CDKN3-Associated Proteins.

[2] = target: T1, CDKN3 and EF-1delta (Homo sapiens, UniProt Q16667); assay: Immunoprecipitation of endogenous CDKN3 and EF-1delta complex in peptide-treated LC319 cells; format: cell-based; settings: peptide added to culture medium
T1 construct: between endogenous CDKN3 and EF-1delta proteins in LC319 cells; endogenous in cells; host or cells: LC319 (human lung adenocarcinoma cell line)
T1 sequence (Q16667 1-212): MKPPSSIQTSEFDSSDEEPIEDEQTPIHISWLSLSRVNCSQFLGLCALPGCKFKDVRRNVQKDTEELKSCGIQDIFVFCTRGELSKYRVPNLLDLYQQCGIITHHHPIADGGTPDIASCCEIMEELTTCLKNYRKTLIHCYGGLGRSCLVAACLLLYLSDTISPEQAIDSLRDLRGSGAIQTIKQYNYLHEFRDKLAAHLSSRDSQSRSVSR
Text: FIG. 24: Identifies the CDKN3-binding region in EF-1delta. Part A presents a schematic drawing of five cell permeable peptides linked covalently at its NH2-terminus to a membrane transducing 11 poly-arginine sequence. The sequence of leucine zipper motif in EF-1delta and five cell permeable peptides derived from EF-1delta are shown. Part B presents the viability of LC319 cells evaluated by MTT assay in response to five cell permeable peptides (upper panel). Reduction of the complex formation detected by immunoprecipitation between endogenous CDKN3 and EF-1delta proteins in LC319 cells that were treated with the 11R-EF-1delta90-108 peptides (lower panel).
Then, to investigate the functional significance of interaction between CDKN3 and EF-1delta for growth or survival of lung-cancer cells, bioactive cell-permeable peptides expected to inhibit the binding of these two proteins were developed. Next 5 different peptides of 19 amino acid sequence that included in codons 73-160 of EF-1delta were synthesized (FIG. 24A). These peptides were covalently linked at NH2-terminalus to a membrane transducing 11 arginine-residues (11R).

Q: How did the “cell viability (MTT assay)” value [1] turn out when “RRRRRRRRRRR-GGG-ENQSLRGVVQELQQAISKL (RRRRRRRRRRRGGGENQSLRGVVQELQQAISKL) [11R-EF-1delta90-108]” was run?
A: The value was “significant decreases”.

Q: And the “complex formation between endogenous CDKN3 and EF-1delta” value [2]?
A: The value was “reduced complex formation”.
